According to patent publication US20260226049A1, “NITROGEN-CONTAINING HETEROCYCLIC COMPOUND, PREPARATION METHOD THEREFOR, AND USE THEREOF” (BIVISION PHARMACEUTICALS, INC, priority 2023, published 2026):

Test system: HT1080 cell line with high FAP expression
Assay: Therapeutic experiment of ^177Lu-labeled compounds in tumor-bearing mice
Type: in vivo, Balb/c Nude mice
Settings: for T/C / Tumor volume (mm^3) Group administration Day 14 / TGI^TV (%): 0.8 mCi; for T/C / Tumor volume (mm^3) Group administration Day 14: Day 14; for TGI^TV (%): Day 14, relative tumor inhibition rate; for Tumor volume (mm^3) Before administration: baseline, 0.8 mCi group
Description: Balb/c Nude tumor-bearing mice (supplier: Shanghai Alamo Pharmaceutical Technology Co., Ltd., HT1080 cell line with high FAP expression) aged approximately 6-8 weeks were randomly assigned to 13 experimental groups based on tumor volume, with 5 mice per group. Animal body weight and tumor size were measured, and administration was initiated on the grouping day starting with Group 1 (control group: normal saline). General health and appearance were observed daily after the start of the experiment. Animal body weight and tumor size were measured before each sample collection time point. Any abnormal observations detected during the entire study period were required to be recorded in the raw data.
The synthesized compounds were labeled with ^177Lu and subsequently utilized in the therapeutic assay on mouse tumor models. […] Furthermore, no significant changes in mouse body weight (FIG. 8) were observed throughout the experimental period.
• TGI^TV: Relative tumor inhibition rate (TGI^TV): TGI^TV (%)=[1−(Ti−T0)/(Vi−V0)]×100%; • (Ti: average tumor volume of the treatment group on day i of administration, TO: average tumor volume of the treatment group on day 0 of administration; Vi: average tumor volume of the solvent control group on day i of administration, V0: average tumor volume of the solvent control group on day 0 of administration) • T/C: T/C % is one of the most commonly used indicators for tumor response to treatment: T/C %=T/C*100%; • (T represents the average tumor volume of the treatment group at a specific time point; C represents the average tumor volume of the control group at a specific time point.)
The differences between the treatment groups (tumor volumes of the second, third, fourth, and fifth groups) and the control group (tumor volume of the first group) and between the tumor volumes of the first, third, fourth, and fifth groups and the tumor volume of the second group were analyzed using the two-way ANOVA Fisher's LSD test method. P-values less than 0.05 were considered statistically significant. Both statistical significance and biological significance were taken into account during the result analysis.

N#C[C@@H]1CC(F)(F)CN1C(=O)CNC(=O)c1cccc(C2CCN(C(=O)CCC(=O)NCCNC(=O)CCC(C(=O)O)N3CCN(CC(=O)O)CCN(CC(=O)O)CCN(CC(=O)O)CC3)CC2)c1.[177Lu] (stereo partly shown) [^177Lu-JHH9]
T/C: 30.65% | Tumor volume (mm^3) Group administration Day 14: 800.87 ± 42.08 mm^3 | TGI^TV (%): 72.54% | Tumor volume (mm^3) Before administration: 155.24 ± 14.81 mm^3

N#C[C@@H]1CC(F)(F)CN1C(=O)CNC(=O)c1cccc2c1CCCN2C(=O)CCC(=O)NCCNC(=O)CCC(C(=O)O)N1CCN(CC(=O)O)CCN(CC(=O)O)CCN(CC(=O)O)CC1.[177Lu] (stereo partly shown) [^177Lu-JHH10]
T/C: 19.38% | Tumor volume (mm^3) Group administration Day 14: 506.26 ± 26.61 mm^3 | TGI^TV (%): 84.48% | Tumor volume (mm^3) Before administration: 141.47 ± 12.20 mm^3

N#C[C@@H]1CC(F)(F)CN1C(=O)CNC(=O)c1cccc2c1CCCC2C(=O)CCC(=O)NCCNC(=O)CCNC(=O)CN1CCN(CC(=O)O)CCN(CC(=O)O)CCN(CC(=O)O)CC1.[177Lu] (stereo partly shown) [^177Lu-JHH14]
T/C: 28.93% | Tumor volume (mm^3) Group administration Day 14: 755.85 ± 58.74 mm^3 | TGI^TV (%): 74.39% | Tumor volume (mm^3) Before administration: 153.87 ± 16.47 mm^3

N#C[C@@H]1CC(F)(F)CN1C(=O)CNC(=O)c1ccnc2c(NC(=O)CCC(=O)NCCNC(=O)CCC(C(=O)O)N3CCN(CC(=O)O)CCN(CC(=O)O)CCN(CC(=O)O)CC3)cccc12.[177Lu] (stereo partly shown) [^177Lu-OncoFAP-DOTAGA, reference compound]
T/C: 32.33% | Tumor volume (mm^3) Group administration Day 14: 844.66 ± 41.70 mm^3 | TGI^TV (%): 69.90% | Tumor volume (mm^3) Before administration: 137.00 ± 12.07 mm^3
